We go through nine compounds from patent US20200072711A1, “FLUORESCENT ENDOPLASMIC RETICULUM TRACKERS FOR LIVE CELL IMAGING OF PATHOGENIC YEAST” (Ramot at Tel Aviv University Ltd., priority 2018, published 2020).

Each structure is given as a SMILES string. ≈ marks a conversion by molar mass, not a printed value. Entries after “also recorded” stand apart in the source; their conditions may differ.

Data set [1] concerns tested panel of Candida strains. The data set can be described thus: Live cell imaging, ER labeling. Type of data set: cell-based. The following applies: panel of Candida strains (C. albicans and C. glabrata). Here is the method:
(§1) Growth conditions for live cell imaging. Cells were grown to log phase in liquid YPD overnight at 30° C. in a 10 ml tube. Cells were diluted 1:10 and then incubated for 2 h at 30° C. to log phase.
(§2) Cell staining. The fluorescent probes were added to a final concentration of 10 μM for probes 1-6 to cells from a log phase culture grown in YPD broth media at 30° C. Cells were then incubated in the dark for a total of 60 min. Before imaging, cells were washed once with PBS buffer. For ER-tracker dyes, DiOC6 (1 μg/mL) and BODIPY™ TR Glibenclamide (1 μM), staining cells were incubated in a prepared Hanks' Balanced Salt Solution at 37° C. for 5 min and 30 min, respectively. For ER-tracker Blue-White DPX (1 μM), staining cells were incubated in YPD for 30 min at 30° C. For mitochondrial staining the previously reported Cy5-based mitochondrial dye was used (1 μg/mL). For staining, cells were incubated in YPD in the presence of dye for 5 min at 30° C. Cells were then washed with PBS buffer once.
Live cell imaging. Candida cells were resuspended in PBS buffer and 2 μL were placed on a glass slides and covered with glass coverslips. C. glabrata (ATCC 2001) cells treated with probes 1-6, all tested Candida cells treated with ER-tracker Blue-White DPX and inter-organelle interaction study were imaged on a MORE imaging system (TILL Photonics GmbH) with an Olympus UPlanApo 100X 1.3 NA oil immersion objective. The bandpass filter sets used to image probes 1-3 were excitation 427/10 nm and emission 510/20 nm. The bandpass filter sets used to image probes 4-6 were excitation 485/20 nm and emission 525/30 nm. The bandpass filter sets used to image ER-tracker Blue-White DPX were excitation 390/40 nm and emission 525/30 nm. The bandpass filter sets used to image Cy5-based mitochondrial dye were excitation 560/25 nm and emission 684/24 nm. C. albicans cells (ATCC 24433 and SN152) and C. glabrata (ATCC 66032) treated with probes 1-6 were imaged on a Nikon Ti microscope equipped with a Plan Apo VC 100X oil objective and a Zyla 5.5 sCMOS camera (Andor) run by NIS elements Ar software. The bandpass filter sets used to image probes 1-3, and DiOC6-stained cells were excitation 440 nm and emission 480/40 nm. The bandpass filter sets used to image cells treated with probes 4-6, excitation 470 nm and emission 525/50 nm were used. For Eno1-mCherry, excitation 585 nm and emission 630/75 nm were used. To optimize the probes, the effects of the concentration (1, 5 and 10 μM), incubation time (5, 30, 60 and 120 min) and media (YPD and HBSS) were investigated. Images were processed using ImageJ program. The smoothed imaged were generated using the convolve filter (Normalize Kernel).

In another data set the test system is C. albicans ATCC 24433. The data set can be described thus: Minimal inhibitory concentration broth double-dilution assay. The class given is cell-based. The following applies: Candida albicans, ATCC24433, 24 h, 37° C., Casitone. Here is the method: (§3) Minimal inhibitory concentration broth double-dilution assay. All strains were tested using the double-dilution method in 96-well plates (Corning). Yeast strains were grown in Casitone growth medium. Starter cultures were incubated for 24 h (37° C., 5% CO2, aerobic conditions) and then diluted 1:100 into fresh medium. Compounds dissolved in ethanol or in DMSO were added to the casitone broth to form the mother liquor (32 μL stock solution in 1218 μL of casitone) at the starting concentration of 64 μg/mL. Next, 100 μL of serial double dilutions of compounds in Casitone ([…], and 0.007 μg/mL) were prepared in flat-bottomed 96-well microplates (Corning). Control wells with no compounds, and wells without yeast cells containing each tested concentration of the compounds (blanks), were also prepared. An equal volume (100 μL) of yeast suspensions in Casitone broth that was prepared as follows: 900 mL doubly distilled H2O, 9 g Casitone (bacto-casitone), 5 g yeast extract, 11.5 g sodium citrate dihydrate, 20 g glucose. The yeast suspension was added to each well for a final volume of 200 μL. The ethanol or the DMSO concentrations ranged from 0.0012% to 1.3%. The final inoculum was between 5×10^4 colony-forming unit (CFU)/mL and 5×10^5 CFU/mL; identical results were obtained when using 5×10^3 CFU/mL as a final inoculum. After incubation for 24 h at 37° C. in 5% CO2, MTT (3-[4,5-dimethylthiazole-2-yl]-2,5-diphenyltetrazolium bromide; 50 μL of a 1 mg/mL solution in H2O) was added to each well followed by additional incubation at 37° C. for 2 h. Each concentration was tested in triplicate, and results were confirmed by two independent sets of experiments.

Data set [2] deals with C. albicans SN152. Described as above. The class given is cell-based. The following applies: Candida albicans, 24 h, 37° C., Casitone. Here is the method:
as §3

A further data set deals with C. glabrata ATCC 2001. The description is as above. Type of data set: cell-based, Candida glabrata. The following applies: Nakaseomyces glabratus, ATCC2001, 24 h, 37° C., Casitone. How it is done:
as §3

A further data set has as its system C. glabrata ATCC 66032. The data set is described as above. Type of data set: cell-based, Candida glabrata. The following applies: Nakaseomyces glabratus, ATCC66032, 24 h, 37° C., Casitone. How it is done:
as §3

For data set [3], the system named is all tested Candida strains. The data set can be described thus: MIC assay, over the panel. The class given is cell-based. Here is the method: as §3, with “The final inoculum was between 5×10^4 colony-forming unit (CFU)/mL and 5×10^5 CFU/mL; identical results were obtained when using 5×10^3 CFU/mL as a final inoculum. After incubation for 24 h at 37° C. in 5% CO2, MTT (3-[4,5-dimethylthiazole-2-yl]-2,5-diphenyltetrazolium bromide; 50 μL of a 1 mg/mL solution in H2O) was added to each well followed by additional incubation at 37° C. for 2 h. Each concentration was tested in triplicate, and results were confirmed by two independent sets of experiments.” left out
The ER-labeling properties were evaluated by incubating the compounds with representative strains of C. albicans and C. glabrata. […]

Data set [4] is described as follows: Absorption and emission spectra of fluorescent probes. The class given is physicochemical. The following applies: 10 μM in PBS, pH=7.4; for emission maxima: excitation at 420 nm. Here is the method: FIGS. 4A-4F show absorption and emission spectra of probes 1-6 (10 μM in PBS, pH=7.4), respectively. Emission spectrum was measured after excitation at 420 nm.
General chemistry methods and instrumentation. ^1H-NMR spectra (including 1D-TOCSY) were recorded on BrukerAvance™ 400 or 500 MHz spectrometers, and chemical shifts (reported in ppm) were calibrated to CDCl3 (d=7.26) when CDCl3 was the solvent, or to CD3OD (d=3.31) when CD3OD was the solvent. ^13C-NMR spectra were recorded on BrukerAvance™ 400 or 500 MHz spectrometers at 100 or 125 MHz. ^19F-NMR spectra were recorded on BrukerAvance™ 400 or 500 MHz spectrometers at 375 or 470 MHz. Multiplicities are reported using the following abbreviations: b=broad, s=singlet, d=doublet, t=triplet, q=quartet. Coupling constants (J) are given in Hertz. HRESI mass spectra were measured on a Waters Synapt instrument. Chemical reactions were monitored by TLC (Merck, Silica gel 60 F254). Visualization was achieved using a cerium molybdate stain (5 g (NH4)2Ce(NO3)6, 120 g (NH4)6Mo7O24·4H2O, 80 mL H2SO4, 720 mL H2O) or with UV lamp. Unless otherwise stated, all chemicals were obtained from commercial sources. Compounds were purified using Geduran® Si 60 chromatography (Merck). The SpectraMax i3x Platform spectrophotometer from Molecular Devices was used for the measurement of the excitation and absorbance spectra of the fluorescent probes.
We first measured the absorption and emission spectra of fluorescent probes 1-6. […] This 70-nm redshift effect is attributed to the effect of the halogen atoms in the phenyl ring segment of these molecules: a difluorophenyl ring in probe 2 and a dichlorophenyl in probe 3.

The next data set concerns C. albicans cells. The experiment in a line: Live cell imaging, ER labeling. Type of data set: cell-based, Candida albicans. How it is done: as §1, §2
(§4) Live cell imaging. Candida cells were resuspended in PBS buffer and 2 μL were placed on a glass slides and covered with glass coverslips. […]

For a further data set, the system named is C. glabrata strains. The data set can be described thus: Live cell imaging, ER labeling. The class given is cell-based, Candida glabrata. The following applies: C. glabrata yeast cells. How it is done:
as §1, §2, §4

The conditions of data set [5]: commercial ER-trackers; cited from earlier work.
Data set [6] deals with C. albicans SN152. The data set can be described thus: Live cell imaging, ER labeling. Type of data set: cell-based, Candida albicans. How it is done:
as §1, §2, §4

Broadly, the MIC is the smallest concentration in the dilution series that meets the test's criterion for growth inhibition. Low readings indicate inhibition by little substance, high ones a need for much substance.

On to `COC(=O)CCC1=[N+]2C(=Cc3c(C)cc(C)n3[B-]2(F)F)C=C1` [BODIPY-methyl ester], for which, in data set [1], the staining pattern result is recorded as “the entire cytoplasm was labeled in a non-specific pattern”.

In the case of `CCN(CC)c1ccc2cc(C(=O)NCC(O)(Cn3ccnn3)c3ccc(Cl)cc3Cl)c(=O)oc2c1` (stereo not drawn) [Probe 3], the MIC was more than 64 µg/mL in the data set on C. albicans ATCC 24433; more than 64 µg/mL in the data set with C. albicans SN152 [2]; more than 64 µg/mL in the data set with C. glabrata ATCC 2001; more than 64 µg/mL in the data set on C. glabrata ATCC 66032; not below 64 µg/mL in [3]. The compound further displayed an absorption spectrum maxima in data set [4] of 430 nm. In [4], the emission maxima is reported as 550 nm. In addition, in data set [1], the staining pattern result is “the distinct nuclear envelope and cortical structure of the ER were clearly observed”.

As to `CCC(C)n1ncn(-c2ccc(N3CCN(c4ccc(OCC5COC(Cn6cncn6)(c6ccc(Cl)cc6Cl)O5)cc4)CC3)cc2)c1=O` (stereo not drawn) [ITR, itraconazole, reference compound], the MIC with C. albicans ATCC 24433 came out at 0.015 µg/mL (≈ 0.0213 µM); in the data set with C. albicans SN152 [2] it was 0.007 µg/mL (≈ 0.00992 µM); in the data set with C. glabrata ATCC 2001, 4 µg/mL (≈ 5.67 µM); with C. glabrata ATCC 66032, 0.5 µg/mL (≈ 0.709 µM).

Consider `CN(C)c1ccc(-c2cnc(-c3ccc(S(=O)(=O)NCCNC(=O)c4c(F)c(F)c(F)c(F)c4F)cc3)o2)cc1` [Blue-White DPX], for which the staining pattern entry in the data set on C. albicans cells is “non-specific staining of the cytoplasm”; in the data set on C. glabrata strains, “label the ER; also recorded: a circular pattern around the nuclear envelope with peripheral cortical extensions reminiscent of the ER structure was clearly visible”; in data set [1], “stained Candida glabrata cells only; also recorded: non-specific labeling of additional intracellular compartments, such as lipid droplets, was observed”. In addition, the “emission (em)” value in data set [5] is given as 430-640 nm. For the same compound, in data set [5], the “excitation (ex)” value was 374 nm.

As for `CCCCCCN1C(=CC=Cc2oc3ccccc3[n+]2CCCCCC)Oc2ccccc21.[I-]` [DiOC6, 3,3′-dihexyloxacarbocyanine iodide], in the data set with C. albicans SN152 [6], the staining pattern result is given as “non-specific staining of other cellular compartments such as lipid droplets was also observed”. In data set [1], the staining pattern entry was “more significant in C. albicans than in C. glabrata yeast cells; also recorded: non-specific labeling of additional intracellular compartments, such as lipid droplets, was observed”. In [5], the “emission (em)” value is given as 500 nm and the “excitation (ex)” value is 480 nm.

`CCOC(=O)c1cc2ccc(N(CC)CC)cc2oc1=O` [ethyl ester of 7-(diethyl)-aminocoumarin, 7-(diethyl)-aminocoumarin ethyl ester]: the staining pattern entry in data set [1] is “did not stain the yeast cell interior of any of the tested Candida strains”.

Consider `OC(Cn1cncn1)(Cn1cncn1)c1ccc(F)cc1F` [FLC, fluconazole, reference compound], for which the MIC with C. albicans ATCC 24433 is 0.5 µg/mL (≈ 1.63 µM); in the data set with C. albicans SN152 [2], 0.5 µg/mL (≈ 1.63 µM); against C. glabrata ATCC 2001, 64 µg/mL (≈ 209 µM); against C. glabrata ATCC 66032, 64 µg/mL (≈ 209 µM).

As to `CCN(CC)c1ccc2cc(C(=O)NCC(O)(Cn3cncn3)c3ccc(F)cc3F)c(=O)oc2c1` (stereo not drawn) [Probe 1], the MIC was 0.03 µg/mL (≈ 0.0603 µM) against C. albicans ATCC 24433, 0.007 µg/mL (≈ 0.0141 µM) with C. albicans SN152 [2], 16 µg/mL (≈ 32.2 µM) against C. glabrata ATCC 2001 and 8 µg/mL (≈ 16.1 µM) in the data set on C. glabrata ATCC 66032.

Consider `CCN(CC)c1ccc2cc(C(=O)NCC(O)(Cn3ccnn3)c3ccc(F)cc3F)c(=O)oc2c1` (stereo not drawn) [Probe 2], for which the MIC against C. albicans ATCC 24433 was more than 64 µg/mL; with C. albicans SN152 [2], more than 64 µg/mL; against C. glabrata ATCC 2001, more than 64 µg/mL; with C. glabrata ATCC 66032 it was more than 64 µg/mL; in [3], not below 64 µg/mL. In data set [4], this compound registered an absorption spectrum maxima of 430 nm. The compound further yielded an emission maxima in data set [4] of 480 nm. For the same compound, the staining pattern result in data set [1] is “the distinct nuclear envelope and cortical structure of the ER were clearly observed”.
